In patent publication US20100331348A1, “TROPANE DERIVATIVES USEFUL AS PESTICIDES” (SYNGENTA CROP PROTECTION, INC., priority 2007, published 2010):
Like-named read-outs stand apart in the source and are kept apart here.

Columns and labels:
[1] = system: Erysiphe graminis f.sp. tritici; experiment: Erysiphe graminis f.sp. tritici (wheat powdery mildew) leaf disk assay; type: in vivo; settings: Blumeria graminis, foliar, 96 h, preventive, four days after inoculation, read-out: control of fungal infection, Erysiphe graminis fsp. tritici
[2] = system: Phytophthora infestans; experiment: whole plant or invertebrate; type: in vivo; settings: foliar, 96 h, read-out: control of fungal infection, Phytophthora infestans
[3] = system: Puccinia recondita f.sp. tritici; experiment: Puccinia recondita f.sp. tritici (wheat brown rust) leaf disk assay; type: in vivo; settings: foliar, 216 h, preventive, nine days after inoculation, read-out: control of fungal infection, Puccinia recondita f.sp. tritici
[4] = system: Aedes aegypti; experiment: Aedes aegypti (Yellow fever mosquito) larvae test; type: in vivo; settings: 48 h
[5] = system: Plasmopara viticola; experiment: Plasmopara viticola (downy mildew of grapevine) leaf disk assay; type: in vivo; settings: foliar, 168 h, preventive, seven days after inoculation, read-out: control of fungal infection, Plasmopara viticola
[6] = system: Pyricularia oryzae; experiment: whole plant or invertebrate; type: in vivo; settings: foliar, 96 h
[7] = system: Plutella xylostella; experiment: Plutella xylostella (Diamond back moth) artificial diet test; settings: 120 h, read-out: control of Plutella xylostella
[8] = read-out: control of fungal infection, Pyricularia oryzae (at least 60% list)
[9] = read-out: control of fungal infection, Pyricularia oryzae (at least 80% list)

COC(=O)Cc1c(Cl)ncnc1ON=C1CC2CCC(C1)N2c1ncnc2sccc12 [Example 5.237]
pest or weed control at 200 ppm [1]: ≥ 80%
pest or weed control at 200 ppm [2]: ≥ 80%

CCC1COC2(CC3CCC(C2)N3c2ncnc3sccc23)O1 (stereo not shown) [Example 6.9]
pest or weed control at 200 ppm [3]: ≥ 80%
pest or weed control at 200 ppm [1]: ≥ 80%
pest or weed control at 2 ppm [4]: ≥ 80%
pest or weed control at 200 ppm [5]: ≥ 80%

c1nc(N2C3CCC2CC(=NOCCC2CCCCC2)C3)c2ccsc2n1 [Example 5.136]
pest or weed control at 200 ppm [5]: ≥ 80%

c1ccc(CCON=C2CC3CCC(C2)N3c2ncnc3sccc23)cc1 [Example 5.140]
pest or weed control at 200 ppm [3]: ≥ 80%
pest or weed control at 200 ppm [1]: ≥ 80%
pest or weed control at 200 ppm [2]: ≥ 80%
pest or weed control at 200 ppm [6, 8]: ≥ 60%
pest or weed control at 200 ppm [6, 9]: ≥ 80%

CCC(=O)c1ccc(OC2C[C@H]3CC[C@@H](C2)N3c2ncnc3sccc23)cc1 (stereo partly shown) [Example 1.256]
pest or weed control at 200 ppm [3]: ≥ 80%
pest or weed control at 2 ppm [4]: ≥ 80%
pest or weed control at 200 ppm [2]: ≥ 80%

CCc1ncnc(N2C3CCC2CC(=NOc2nc(Cl)ccc2C(F)(F)F)C3)c1Cl [Example 5.117]
pest or weed control at 200 ppm [5]: ≥ 80%

CCCNC(=O)C=C1CC2CCC(C1)N2c1ncnc(CC)c1Cl [Example 3.5]
pest or weed control at 200 ppm [3]: ≥ 80%
pest or weed control at 200 ppm [5]: ≥ 80%

Cc1nc(CON=C2CC3CCC(C2)N3c2ncnc3sccc23)cs1 [Example 5.220]
pest or weed control at 200 ppm [3]: ≥ 80%
pest or weed control at 200 ppm [1]: ≥ 80%
pest or weed control at 200 ppm [2]: ≥ 80%

Fc1cc(F)c(F)c(CON=C2CC3CCC(C2)N3c2ncnc3sccc23)c1 [Example 5.227]
pest or weed control at 200 ppm [3]: ≥ 80%
pest or weed control at 200 ppm [1]: ≥ 80%
pest or weed control at 2 ppm [4]: ≥ 80%
pest or weed control at 200 ppm [2]: ≥ 80%
pest or weed control at 200 ppm [6, 8]: ≥ 60%

CCc1ncnc(N2C3CCC2CC(=NOCc2ccc(NC(C)=O)cc2)C3)c1Cl [Example 5.51]
pest or weed control at 200 ppm [3]: ≥ 80%
pest or weed control at 200 ppm [1]: ≥ 80%
pest or weed control at 200 ppm [2]: ≥ 80%

CC(=O)Nc1ccc(CON=C2CC3CCC(C2)N3c2ncnc3sccc23)cc1 [Example 5.159]
pest or weed control at 200 ppm [1]: ≥ 80%
pest or weed control at 200 ppm [2]: ≥ 80%

CCc1ncnc(N2C3CCC2CC(=NOCc2cccc(F)c2)C3)c1Cl [Example 5.48]
pest or weed control at 200 ppm [3]: ≥ 80%
pest or weed control at 200 ppm [1]: ≥ 80%
pest or weed control at 2 ppm [4]: ≥ 80%
pest or weed control at 200 ppm [2]: ≥ 80%

c1cnc(OC2C[C@H]3CC[C@@H](C2)N3c2ncnc3sccc23)nc1 (stereo partly shown) [Example 1.2]
pest or weed control at 200 ppm [3]: ≥ 80%
pest or weed control at 200 ppm [1]: ≥ 80%
pest or weed control at 200 ppm [2]: ≥ 80%
pest or weed control at 200 ppm [6, 9]: ≥ 80%

c1ccc2c(c1)[nH]c1cc(OC3C[C@H]4CC[C@@H](C3)N4c3ncnc4sccc34)ccc12 (stereo partly shown) [Example 2.19]
pest or weed control at 200 ppm [1]: ≥ 80%
pest or weed control at 200 ppm [2]: ≥ 80%

CCc1ncnc(N2C3CCC2CC(=NOCc2ccccc2OC)C3)c1Cl [Example 5.23]
pest or weed control at 200 ppm [3]: ≥ 80%
pest or weed control at 200 ppm [1]: ≥ 80%
pest or weed control at 200 ppm [5]: ≥ 80%

O=C(C=C1CC2CCC(C1)N2c1ncnc2sccc12)Nc1ccc(Cl)cc1 [Example 3.17]
pest or weed control at 200 ppm [5]: ≥ 80%

Fc1cccc(OC2C[C@H]3CC[C@@H](C2)N3c2ncnc3sccc23)c1 (stereo partly shown) [Example 1.15]
pest or weed control at 200 ppm [3]: ≥ 80%
pest or weed control at 200 ppm [5]: ≥ 80%

Brc1ccc(CON=C2CC3CCC(C2)N3c2ncnc3sccc23)cc1 [Example 5.158]
pest or weed control at 200 ppm [3]: ≥ 80%
pest or weed control at 200 ppm [1]: ≥ 80%
pest or weed control at 200 ppm [2]: ≥ 80%
pest or weed control at 200 ppm [6, 9]: ≥ 80%

CCc1ncnc(N2[C@@H]3CC[C@H]2CC(Oc2ccc(OC)cc2C(C)=O)C3)c1Cl (stereo partly shown) [Example 1.211]
pest or weed control at 200 ppm [2]: ≥ 80%

Clc1cccc(CON=C2CC3CCC(C2)N3c2ncnc3sccc23)c1 [Example 5.150]
pest or weed control at 200 ppm [3]: ≥ 80%
pest or weed control at 200 ppm [1]: ≥ 80%
pest or weed control at 2 ppm [4]: ≥ 80%
pest or weed control at 200 ppm [2]: ≥ 80%
pest or weed control at 200 ppm [6, 8]: ≥ 60%

CCc1ncnc(N2C3CCC2CC(=NOCc2nc(C)cc(Cl)n2)C3)c1Cl [Example 5.13]
pest or weed control at 200 ppm [1]: ≥ 80%
pest or weed control at 200 ppm [5]: ≥ 80%

Fc1ccc(CON=C2CC3CCC(C2)N3c2ncnc3sccc23)cc1F [Example 5.185]
pest or weed control at 200 ppm [3]: ≥ 80%
pest or weed control at 200 ppm [1]: ≥ 80%
pest or weed control at 2 ppm [4]: ≥ 80%
pest or weed control at 200 ppm [2]: ≥ 80%
pest or weed control at 200 ppm [6, 8]: ≥ 60%
pest or weed control at 200 ppm [6, 9]: ≥ 80%
pest or weed control at 200 ppm [7]: ≥ 80%

CCc1ncnc(N2C3CCC2CC(=NOCc2c(C)noc2C)C3)c1Cl [Example 5.110]
pest or weed control at 200 ppm [3]: ≥ 80%
pest or weed control at 200 ppm [2]: ≥ 80%

Fc1cc(CON=C2CC3CCC(C2)N3c2ncnc3sccc23)cc(C(F)(F)F)c1 [Example 5.231]
pest or weed control at 200 ppm [1]: ≥ 80%
pest or weed control at 200 ppm [5]: ≥ 80%
pest or weed control at 200 ppm [6, 8]: ≥ 60%

Cc1cc(OCC=C2CC3CCC(C2)N3c2ncnc3sccc23)nc(C)n1 [Example 3.18]
pest or weed control at 200 ppm [3]: ≥ 80%
pest or weed control at 2 ppm [4]: ≥ 80%
pest or weed control at 200 ppm [5]: ≥ 80%

N#Cc1cccc(CON=C2CC3CCC(C2)N3c2ncnc3sccc23)c1 [Example 5.199]
pest or weed control at 200 ppm [3]: ≥ 80%
pest or weed control at 200 ppm [1]: ≥ 80%
pest or weed control at 200 ppm [2]: ≥ 80%
pest or weed control at 200 ppm [6, 9]: ≥ 80%

CCc1ncnc(N2C3CCC2CC(=CC(=O)N(C)C)C3)c1Cl [Example 3.3]
pest or weed control at 200 ppm [2]: ≥ 80%

CC(NC(=O)C=C1CC2CCC(C1)N2c1ncnc2sccc12)c1ccccc1 (stereo not shown) [Example 3.22]
pest or weed control at 200 ppm [3]: ≥ 80%
pest or weed control at 200 ppm [5]: ≥ 80%

CCc1ncnc(N2C3CCC2CC(=NOCC(=O)OC(C)(C)C)C3)c1Cl [Example 5.24]
pest or weed control at 200 ppm [1]: ≥ 80%
pest or weed control at 200 ppm [2]: ≥ 80%

Cc1nn(C)c2nccc(N3C4CCC3CC(=NOCc3ccccc3)C4)c12 [Example 5.253]
pest or weed control at 200 ppm [5]: ≥ 80%

Clc1cc2c(cc1CON=C1CC3CCC(C1)N3c1ncnc3sccc13)OCO2 [Example 5.250]
pest or weed control at 200 ppm [3]: ≥ 80%
pest or weed control at 200 ppm [1]: ≥ 80%
pest or weed control at 2 ppm [4]: ≥ 80%
pest or weed control at 200 ppm [5]: ≥ 80%

CCc1ncnc(N2C3CCC2CC(=NOCc2ccccc2C)C3)c1Cl [Example 5.10]
pest or weed control at 200 ppm [3]: ≥ 80%
pest or weed control at 200 ppm [1]: ≥ 80%
pest or weed control at 200 ppm [2]: ≥ 80%
pest or weed control at 200 ppm [7]: ≥ 80%

FC(F)(F)c1ccc(OC2C[C@H]3CC[C@@H](C2)N3c2ncnc3sccc23)nc1 (stereo partly shown) [Example 2.61]
pest or weed control at 200 ppm [3]: ≥ 80%
pest or weed control at 200 ppm [1]: ≥ 80%
pest or weed control at 200 ppm [2]: ≥ 80%
pest or weed control at 200 ppm [6, 8]: ≥ 60%

Clc1cc(ON=C2CC3CCC(C2)N3c2ncnc3sccc23)nc(Cl)n1 [Example 5.154]
pest or weed control at 200 ppm [5]: ≥ 80%

ClCC1COC2(CC3CCC(C2)N3c2ncnc3sccc23)O1 (stereo not shown) [Example 6.8]
pest or weed control at 200 ppm [3]: ≥ 80%
pest or weed control at 200 ppm [1]: ≥ 80%
pest or weed control at 2 ppm [4]: ≥ 80%
pest or weed control at 200 ppm [5]: ≥ 80%

c1ccc(-c2ccccc2CON=C2CC3CCC(C2)N3c2ncnc3sccc23)cc1 [Example 5.177]
pest or weed control at 200 ppm [2]: ≥ 80%

FC(F)(F)c1cccc(OC2C[C@H]3CC[C@@H](C2)N3c2ncnc3ccccc23)n1 (stereo partly shown) [Example 2.83]
pest or weed control at 200 ppm [3]: ≥ 80%
pest or weed control at 200 ppm [1]: ≥ 80%
pest or weed control at 200 ppm [2]: ≥ 80%

Brc1cccc(CON=C2CC3CCC(C2)N3c2ncnc3sccc23)c1 [Example 5.181]
pest or weed control at 200 ppm [3]: ≥ 80%
pest or weed control at 200 ppm [1]: ≥ 80%
pest or weed control at 2 ppm [4]: ≥ 80%
pest or weed control at 200 ppm [2]: ≥ 80%
pest or weed control at 200 ppm [6, 8]: ≥ 60%

Fc1cc(CON=C2CC3CCC(C2)N3c2ncnc3sccc23)cc(C(F)(F)F)c1F [Example 5.235]
pest or weed control at 200 ppm [3]: ≥ 80%
pest or weed control at 200 ppm [1]: ≥ 80%
pest or weed control at 200 ppm [2]: ≥ 80%
pest or weed control at 200 ppm [6, 8]: ≥ 60%

CCc1ncnc(N2C3CCC2CC(=NOCc2ccc(F)c(F)c2F)C3)c1Cl [Example 5.81]
pest or weed control at 200 ppm [3]: ≥ 80%
pest or weed control at 200 ppm [1]: ≥ 80%
pest or weed control at 2 ppm [4]: ≥ 80%
pest or weed control at 200 ppm [2]: ≥ 80%
pest or weed control at 200 ppm [6, 8]: ≥ 60%

Cc1nsc(Oc2cccc(OC3C[C@H]4CC[C@@H](C3)N4c3ncnc4scc(C)c34)c2)n1 (stereo partly shown) [Example 2.73]
pest or weed control at 200 ppm [1]: ≥ 80%
pest or weed control at 200 ppm [2]: ≥ 80%

CCc1ncnc(N2C3CCC2CC(=NOc2ncccn2)C3)c1Cl [Example 5.2]
pest or weed control at 200 ppm [2]: ≥ 80%

CCOC(=O)c1ccc(CON=C2CC3CCC(C2)N3c2ncnc3sccc23)o1 [Example 5.259]
pest or weed control at 200 ppm [3]: ≥ 80%
pest or weed control at 200 ppm [1]: ≥ 80%
pest or weed control at 200 ppm [5]: ≥ 80%

COc1cc(ON=C2CC3CCC(C2)N3c2ncnc3sccc23)nc(SC)n1 [Example 5.246]
pest or weed control at 200 ppm [3]: ≥ 80%
pest or weed control at 200 ppm [5]: ≥ 80%

Cc1cc(C)c(CON=C2CC3CCC(C2)N3c2ncnc3sccc23)c(C)c1 [Example 5.189]
pest or weed control at 200 ppm [3]: ≥ 80%
pest or weed control at 200 ppm [1]: ≥ 80%
pest or weed control at 200 ppm [2]: ≥ 80%

CSc1nc(C)cc(OC2C[C@H]3CC[C@@H](C2)N3c2ncnc3sccc23)n1 (stereo partly shown) [Example 1.77]
pest or weed control at 200 ppm [1]: ≥ 80%
pest or weed control at 200 ppm [5]: ≥ 80%

Cc1ccc(OC2C[C@H]3CC[C@@H](C2)N3c2ncnc3sccc23)cn1 (stereo partly shown) [Example 2.44]
pest or weed control at 200 ppm [1]: ≥ 80%
pest or weed control at 200 ppm [2]: ≥ 80%

O=C(CC1CC2CCC(C1)N2c1ncnc2sccc12)Nc1ccc(Cl)cc1 (stereo not shown) [Example 7.12]
pest or weed control at 200 ppm [3]: ≥ 80%
pest or weed control at 200 ppm [5]: ≥ 80%
